Measured values: ChEMBL document CHEMBL5465560, “Selectivity Literature for EUbOPEN Chemogenomic Library” (2024)
Each block holds one molecule with its values, some of them ahead of it.

How the values were obtained:
[1] = biological target: Epithelial discoidin domain-containing receptor 1 (Homo sapiens) (UniProt Q08345); assay: Selectivity interaction (LanthaScreen Eu Kinase Binding Assay) EUB0001632a DDR1; conditions: at 10 µM
[2] = biological target: T1, Serine/threonine-protein kinase D3 (Homo sapiens) (UniProt O94806); assay: Selectivity interaction (Kinase panel (Z-LYTE Assay)) EUB0001632a PRKD3; conditions: at 10 µM
T1 sequence (whole entry): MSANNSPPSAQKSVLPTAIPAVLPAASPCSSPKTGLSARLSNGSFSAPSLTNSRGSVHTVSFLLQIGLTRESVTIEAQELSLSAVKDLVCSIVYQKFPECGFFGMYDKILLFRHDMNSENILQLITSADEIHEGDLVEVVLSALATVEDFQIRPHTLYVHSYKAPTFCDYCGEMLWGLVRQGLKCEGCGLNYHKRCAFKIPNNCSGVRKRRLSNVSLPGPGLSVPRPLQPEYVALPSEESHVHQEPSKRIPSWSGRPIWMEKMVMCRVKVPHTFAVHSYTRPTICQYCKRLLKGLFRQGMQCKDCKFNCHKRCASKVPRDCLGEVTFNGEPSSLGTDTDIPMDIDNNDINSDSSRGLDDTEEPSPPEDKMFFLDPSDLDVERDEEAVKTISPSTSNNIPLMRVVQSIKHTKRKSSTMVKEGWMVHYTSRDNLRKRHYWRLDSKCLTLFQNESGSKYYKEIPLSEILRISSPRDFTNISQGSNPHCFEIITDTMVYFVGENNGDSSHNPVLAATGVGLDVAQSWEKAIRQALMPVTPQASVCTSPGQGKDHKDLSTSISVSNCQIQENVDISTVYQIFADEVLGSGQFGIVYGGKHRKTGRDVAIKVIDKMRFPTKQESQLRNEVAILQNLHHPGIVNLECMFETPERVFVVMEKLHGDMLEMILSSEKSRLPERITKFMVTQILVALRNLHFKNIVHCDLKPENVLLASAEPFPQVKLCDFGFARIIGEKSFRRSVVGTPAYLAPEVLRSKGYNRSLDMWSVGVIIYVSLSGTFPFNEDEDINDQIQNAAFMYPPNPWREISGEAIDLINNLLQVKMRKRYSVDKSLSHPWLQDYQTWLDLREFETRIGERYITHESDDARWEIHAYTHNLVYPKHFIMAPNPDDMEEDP

[3] = biological target: Ribosomal protein S6 kinase alpha-4 (Homo sapiens) (UniProt O75676); assay: Selectivity interaction (SelectScreen profiling (Invitrogen)) EUB0000607a RPS6KA4; conditions: at 2 µM
Ribosomal protein S6 kinase alpha-4 (Homo sapiens), sequence (O75676 whole entry, looked up): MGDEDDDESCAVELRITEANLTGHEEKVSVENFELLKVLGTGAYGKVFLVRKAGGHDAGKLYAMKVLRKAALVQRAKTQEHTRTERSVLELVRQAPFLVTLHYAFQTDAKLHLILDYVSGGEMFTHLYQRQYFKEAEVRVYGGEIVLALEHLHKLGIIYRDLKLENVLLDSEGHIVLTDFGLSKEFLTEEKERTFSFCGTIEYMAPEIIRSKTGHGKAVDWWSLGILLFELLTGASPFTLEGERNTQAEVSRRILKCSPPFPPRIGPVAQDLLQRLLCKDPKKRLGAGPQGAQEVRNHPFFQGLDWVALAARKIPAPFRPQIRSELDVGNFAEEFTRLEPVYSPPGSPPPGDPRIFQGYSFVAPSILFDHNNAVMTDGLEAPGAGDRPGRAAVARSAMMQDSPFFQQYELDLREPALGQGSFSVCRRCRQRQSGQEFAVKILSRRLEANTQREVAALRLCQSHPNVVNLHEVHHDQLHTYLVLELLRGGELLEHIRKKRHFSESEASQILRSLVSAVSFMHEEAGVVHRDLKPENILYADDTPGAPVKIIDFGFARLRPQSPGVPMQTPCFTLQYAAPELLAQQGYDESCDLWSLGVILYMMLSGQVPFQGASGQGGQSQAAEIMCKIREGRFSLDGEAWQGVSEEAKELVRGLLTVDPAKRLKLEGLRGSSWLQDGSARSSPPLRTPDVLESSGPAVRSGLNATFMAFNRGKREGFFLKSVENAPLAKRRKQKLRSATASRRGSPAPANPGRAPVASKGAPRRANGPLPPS

SRSF protein kinase 1 = SRSF protein kinase 1 (Homo sapiens, UniProt Q96SB4); assay: Selectivity interaction (SelectScreen profiling (Invitrogen)) EUB0000607a SRPK1; conditions: at 2 µM
SRSF protein kinase 1, sequence (Q96SB4 whole entry): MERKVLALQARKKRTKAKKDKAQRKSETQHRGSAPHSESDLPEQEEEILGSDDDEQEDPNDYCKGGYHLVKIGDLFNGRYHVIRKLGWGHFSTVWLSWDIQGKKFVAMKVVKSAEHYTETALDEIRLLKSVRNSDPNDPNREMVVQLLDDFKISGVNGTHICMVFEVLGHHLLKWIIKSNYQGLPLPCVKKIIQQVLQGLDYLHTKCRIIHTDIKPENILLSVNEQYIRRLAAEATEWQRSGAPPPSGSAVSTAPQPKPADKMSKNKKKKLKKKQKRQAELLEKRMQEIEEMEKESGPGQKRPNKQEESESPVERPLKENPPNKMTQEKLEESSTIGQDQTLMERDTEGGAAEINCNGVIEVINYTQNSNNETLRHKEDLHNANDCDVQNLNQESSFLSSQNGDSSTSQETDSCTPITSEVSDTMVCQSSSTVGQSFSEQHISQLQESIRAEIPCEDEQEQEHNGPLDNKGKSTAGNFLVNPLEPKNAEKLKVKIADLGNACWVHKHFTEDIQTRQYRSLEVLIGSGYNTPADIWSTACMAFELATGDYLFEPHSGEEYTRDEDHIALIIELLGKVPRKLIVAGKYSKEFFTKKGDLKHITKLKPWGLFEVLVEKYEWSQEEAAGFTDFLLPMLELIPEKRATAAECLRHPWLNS

[4] = biological target: Tyrosine-protein kinase Fer (Homo sapiens) (UniProt P16591); assay: Selectivity interaction (ActivX KiNativ screen (kinase selectivity in THP-1 cell lysates)) EUB0000639a FER; assay type: subcellular; conditions: lysate
Tyrosine-protein kinase Fer (Homo sapiens), sequence (P16591 whole entry, looked up): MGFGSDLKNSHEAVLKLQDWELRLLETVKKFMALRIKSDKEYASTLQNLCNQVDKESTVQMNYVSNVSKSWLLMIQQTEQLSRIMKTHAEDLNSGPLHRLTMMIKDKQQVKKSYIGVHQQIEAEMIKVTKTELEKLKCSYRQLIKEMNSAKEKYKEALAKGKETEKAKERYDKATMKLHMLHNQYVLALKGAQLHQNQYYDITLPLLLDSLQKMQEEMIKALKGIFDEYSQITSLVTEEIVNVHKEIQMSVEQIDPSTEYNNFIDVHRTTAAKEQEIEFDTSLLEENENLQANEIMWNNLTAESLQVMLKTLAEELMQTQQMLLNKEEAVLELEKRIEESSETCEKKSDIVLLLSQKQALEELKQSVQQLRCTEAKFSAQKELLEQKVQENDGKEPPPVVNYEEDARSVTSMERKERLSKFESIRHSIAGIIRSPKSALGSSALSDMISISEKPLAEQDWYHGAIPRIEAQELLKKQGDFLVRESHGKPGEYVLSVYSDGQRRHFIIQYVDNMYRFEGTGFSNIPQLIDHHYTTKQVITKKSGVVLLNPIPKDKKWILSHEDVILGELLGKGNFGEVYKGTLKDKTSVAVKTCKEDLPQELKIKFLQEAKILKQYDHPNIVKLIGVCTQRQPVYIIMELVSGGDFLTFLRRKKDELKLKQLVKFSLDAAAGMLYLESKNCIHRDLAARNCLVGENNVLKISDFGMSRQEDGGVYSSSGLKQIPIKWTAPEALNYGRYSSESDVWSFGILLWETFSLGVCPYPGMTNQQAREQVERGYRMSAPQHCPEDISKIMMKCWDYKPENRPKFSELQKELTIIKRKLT

[5] = biological target: Dual specificity protein kinase CLK3 (Homo sapiens, UniProt P49761); assay: Selectivity interaction (ProQinase) EUB0000171b CLK3
Dual specificity protein kinase CLK3, sequence (P49761 whole entry, looked up): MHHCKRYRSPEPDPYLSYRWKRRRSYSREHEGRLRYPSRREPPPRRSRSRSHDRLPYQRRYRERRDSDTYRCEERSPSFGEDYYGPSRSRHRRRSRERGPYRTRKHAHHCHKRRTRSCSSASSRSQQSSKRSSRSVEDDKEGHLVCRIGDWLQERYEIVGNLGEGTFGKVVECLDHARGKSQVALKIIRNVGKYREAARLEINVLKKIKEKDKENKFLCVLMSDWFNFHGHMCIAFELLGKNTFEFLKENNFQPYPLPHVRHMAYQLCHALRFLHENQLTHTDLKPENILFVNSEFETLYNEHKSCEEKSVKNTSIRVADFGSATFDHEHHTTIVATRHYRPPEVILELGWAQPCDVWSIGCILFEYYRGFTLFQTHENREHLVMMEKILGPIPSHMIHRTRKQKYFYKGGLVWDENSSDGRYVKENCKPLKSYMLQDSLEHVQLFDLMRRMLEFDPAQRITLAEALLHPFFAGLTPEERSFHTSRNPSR

[6] = biological target: Cholecystokinin receptor type A (Homo sapiens) (UniProt P32238); assay: Selectivity interaction (Panel of non-epigenetic targets (kinases, GPCRs, ion channels, and transporters, Eurofins) ) EUB0000271b CCKAR; conditions: at 1 µM
Cholecystokinin receptor type A (Homo sapiens), sequence (P32238 whole entry): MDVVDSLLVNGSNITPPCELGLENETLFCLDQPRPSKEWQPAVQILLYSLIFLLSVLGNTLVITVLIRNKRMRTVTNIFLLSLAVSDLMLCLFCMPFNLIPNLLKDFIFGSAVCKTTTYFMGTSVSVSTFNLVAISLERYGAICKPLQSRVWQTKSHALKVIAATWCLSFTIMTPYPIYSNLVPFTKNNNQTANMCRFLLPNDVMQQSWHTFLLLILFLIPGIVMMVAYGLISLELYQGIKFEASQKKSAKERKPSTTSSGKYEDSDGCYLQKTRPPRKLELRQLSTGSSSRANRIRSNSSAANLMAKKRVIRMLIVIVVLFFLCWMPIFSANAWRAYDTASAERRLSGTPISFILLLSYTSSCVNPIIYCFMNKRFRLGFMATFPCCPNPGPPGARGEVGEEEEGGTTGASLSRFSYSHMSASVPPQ

[7] = biological target: Serine/threonine-protein kinase tousled-like 2 (Homo sapiens) (UniProt Q86UE8); assay: Selectivity interaction (KinomeScan (DiscoverX)) EUB0000655a TLK2; conditions: at 10 µM
Serine/threonine-protein kinase tousled-like 2 (Homo sapiens), sequence (Q86UE8 whole entry, looked up): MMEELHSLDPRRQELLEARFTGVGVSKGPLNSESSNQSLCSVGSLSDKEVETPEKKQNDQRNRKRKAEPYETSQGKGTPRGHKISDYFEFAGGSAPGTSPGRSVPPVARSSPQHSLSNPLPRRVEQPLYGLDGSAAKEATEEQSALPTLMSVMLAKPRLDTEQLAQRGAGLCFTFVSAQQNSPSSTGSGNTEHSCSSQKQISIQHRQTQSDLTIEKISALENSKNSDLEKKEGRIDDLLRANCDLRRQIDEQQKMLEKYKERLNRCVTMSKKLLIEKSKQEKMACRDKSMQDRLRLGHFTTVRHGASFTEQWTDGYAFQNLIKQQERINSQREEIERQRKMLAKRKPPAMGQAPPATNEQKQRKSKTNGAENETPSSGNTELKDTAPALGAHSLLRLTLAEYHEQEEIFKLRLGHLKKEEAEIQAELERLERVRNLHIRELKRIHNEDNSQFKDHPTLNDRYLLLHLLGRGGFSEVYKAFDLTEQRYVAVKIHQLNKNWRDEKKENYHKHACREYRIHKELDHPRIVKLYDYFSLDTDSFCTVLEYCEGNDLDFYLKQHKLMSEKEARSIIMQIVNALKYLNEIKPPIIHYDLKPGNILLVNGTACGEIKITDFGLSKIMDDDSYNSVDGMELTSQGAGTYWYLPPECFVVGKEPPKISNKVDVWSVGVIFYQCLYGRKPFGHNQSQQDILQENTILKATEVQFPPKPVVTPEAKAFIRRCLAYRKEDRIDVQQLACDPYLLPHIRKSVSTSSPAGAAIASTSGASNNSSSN

[8] = biological target: T2, Protein arginine N-methyltransferase 9 (Homo sapiens) (UniProt Q6P2P2); conditions: at 10 µM
T2 sequence (whole entry): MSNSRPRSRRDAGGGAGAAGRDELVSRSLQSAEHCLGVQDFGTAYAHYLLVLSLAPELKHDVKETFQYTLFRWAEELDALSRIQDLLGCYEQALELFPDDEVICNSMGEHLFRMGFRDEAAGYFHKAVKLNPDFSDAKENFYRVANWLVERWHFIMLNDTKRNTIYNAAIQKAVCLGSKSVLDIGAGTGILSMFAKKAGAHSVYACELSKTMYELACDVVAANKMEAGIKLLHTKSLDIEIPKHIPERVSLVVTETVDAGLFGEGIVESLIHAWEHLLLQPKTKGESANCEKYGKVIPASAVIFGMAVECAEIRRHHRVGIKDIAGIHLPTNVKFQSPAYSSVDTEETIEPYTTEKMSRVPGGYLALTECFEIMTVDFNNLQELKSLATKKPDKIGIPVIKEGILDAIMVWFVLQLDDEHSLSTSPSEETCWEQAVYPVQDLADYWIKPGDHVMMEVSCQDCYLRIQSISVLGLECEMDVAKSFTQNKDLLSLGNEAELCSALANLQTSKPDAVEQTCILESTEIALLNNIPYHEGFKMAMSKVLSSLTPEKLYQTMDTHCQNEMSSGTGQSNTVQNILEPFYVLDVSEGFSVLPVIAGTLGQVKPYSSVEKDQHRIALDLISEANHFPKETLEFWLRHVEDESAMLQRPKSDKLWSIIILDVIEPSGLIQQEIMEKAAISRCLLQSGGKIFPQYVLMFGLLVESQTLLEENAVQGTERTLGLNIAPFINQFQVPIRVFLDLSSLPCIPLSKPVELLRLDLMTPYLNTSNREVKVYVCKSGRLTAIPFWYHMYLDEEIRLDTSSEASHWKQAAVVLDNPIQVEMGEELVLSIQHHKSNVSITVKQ

Epithelial discoidin domain-containing receptor 1 (Homo sapiens), sequence (Q08345 whole entry, the tested form may be a part): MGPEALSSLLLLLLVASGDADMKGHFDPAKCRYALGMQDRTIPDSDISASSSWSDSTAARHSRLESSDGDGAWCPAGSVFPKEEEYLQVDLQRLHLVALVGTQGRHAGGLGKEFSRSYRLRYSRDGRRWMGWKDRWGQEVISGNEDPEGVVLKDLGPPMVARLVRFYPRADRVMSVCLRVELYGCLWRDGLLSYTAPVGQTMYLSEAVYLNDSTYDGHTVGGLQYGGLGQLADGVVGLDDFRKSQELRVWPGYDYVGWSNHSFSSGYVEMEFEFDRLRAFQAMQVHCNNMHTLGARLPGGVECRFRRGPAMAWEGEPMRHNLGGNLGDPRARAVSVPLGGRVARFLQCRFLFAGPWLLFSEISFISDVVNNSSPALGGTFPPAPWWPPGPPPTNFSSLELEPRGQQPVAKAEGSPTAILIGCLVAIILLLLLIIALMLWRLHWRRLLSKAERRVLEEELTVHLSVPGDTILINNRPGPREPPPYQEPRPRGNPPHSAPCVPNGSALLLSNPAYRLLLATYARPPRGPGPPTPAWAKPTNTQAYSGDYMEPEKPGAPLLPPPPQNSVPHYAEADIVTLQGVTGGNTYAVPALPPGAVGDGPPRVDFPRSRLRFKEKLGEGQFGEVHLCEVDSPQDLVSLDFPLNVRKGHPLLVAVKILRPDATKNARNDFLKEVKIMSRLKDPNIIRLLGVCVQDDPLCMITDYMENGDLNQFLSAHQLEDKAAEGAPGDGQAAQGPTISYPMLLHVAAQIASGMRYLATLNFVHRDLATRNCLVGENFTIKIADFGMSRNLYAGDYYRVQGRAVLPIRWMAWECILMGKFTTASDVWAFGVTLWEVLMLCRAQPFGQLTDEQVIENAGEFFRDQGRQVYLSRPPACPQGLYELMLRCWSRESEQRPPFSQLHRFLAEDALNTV

% of inhibition ([4]; at 0.01 µM): -9.6%
% of inhibition ([4]; at 0.04 µM): 0.8%
% of inhibition ([4]; at 0.2 µM): -7.6%
% of inhibition ([4]; at 1 µM): 15.7%
% of inhibition ([4]; at 5 µM): 10.9%
SMILES: CC[C@@H]1[C@H](F)C(=O)N[C@@H]1COc1nccc2cc(C(N)=O)c(OC)cc12 [ZIMLOVISERTIB]

% activity [8]: > 90%
SMILES: CNCCN1CCC(c2cc(CN(C)C(=O)c3cccc(Oc4ccccc4)c3)ccn2)CC1

Further lines, the molecule ahead of its results:

SMILES: Cn1cc(-n2cnc3c(NCc4nc5cc(Cl)c(Cl)cc5[nH]4)nc(N4CCOCC4)nc32)cn1
% of inhibition [1]: 0.322%
% of control [2]: 1.79%

SMILES: CNC(=O)Nc1ccc(-c2nc(N3CC4CCC(C3)O4)c3cnn(C4CCC5(CC4)OCCO5)c3n2)cc1
% of inhibition [3]: 1%
% of inhibition (SRSF protein kinase 1): 2%

SMILES: C=CC(=O)Nc1cccc(C(=O)Nc2ccc(Nc3cc(-c4[nH]c(SC)nc4C)ccn3)cc2)c1
% of control ([5]; at 1 µM): 98%
% of control ([5]; at 5 µM): 89%

SMILES: Cc1cc(C)cc([C@@H]2c3cc(C)ccc3NC(=O)CN2C(=O)c2ccc(Br)s2)c1
% of inhibition [6]: 1%

SMILES: CN(C)CCOc1ccc(-c2nc(-c3ccncc3)c(-c3ccc4c(c3)CC/C4=N\O)[nH]2)cc1
% of control [7]: 86%
